One series has as its system Factor VII. Kind of series: Factor VII activity assay, in vivo liver delivery of FVII siRNA LNP. Details: species or system mouse. The settings on record: ~48 h. The method, then: Female CD-1 mice are received from Charles River Labs and maintained on standard lab chow and water ad libitum. The animals weigh approximately 25 grams at time of dosing. Formulated siRNA is administered as a single dose at various dose levels intravenously via the lateral tail vein calculated on a (mg siRNAs/kg) basis according to individual animal weights (10 ml/kg injection volume).
Formulated siRNAs are made up of double stranded siRNA sequences specific to a target mRNA sequence, and are in the form of lipid nucleotid particles (LNPs) containing cationic lipids, stealth lipids and neutral lipids, as provided in the Examples below. The siRNA construct for use in targeting the liver is specific to Factor VII. […] FVII siRNA duplex sequence
Formulated Factor VII siRNA is administered as a single dose at various dose levels intravenously via the lateral tail vein calculated on a mg siRNAs/kg basis according to individual animal weights (10 ml/kg injection volume). Approximately 48 h after injection, the mice are euthanized by CO2 inhalation followed by exsanguinations through the vena cava. […] In some cases, small pieces (˜50 mg) of liver are collected and snap frozen in liquid nitrogen for follow up mRNA quantitation.
An assay standard curve is prepared using pooled plasma aliquots from the vehicle control animals.

Series [1] is described as follows: pKa of the lipid by TNS fluorescence. Type of series: physicochemical. On the procedure:
Unless explicitly indicated otherwise, all pKas referred to herein are measured in water at standard temperature and pressure. Also, unless otherwise indicated, all references to pKa are references to pKa measured using the following technique.
2 mM solution of lipid in ethanol are prepared by weighing the lipid and then dissolving in ethanol.
This is done with all eight buffers.
Priority: Column priority • Carriage Speed: Normal • Auto read: Off
The normalized fluorescence intensity vs. pH chart is then plotted in the Microsoft Excel software. The eight points are connected with a smooth line.
The pKa determined using this method is precise to about 0.2 pKa units.

A short description of series [2]: Particle size and PDI by dynamic light scattering (Malvern Zetasizer). Type of series: physicochemical. The method, then: Unless indicated otherwise, all sizes referred to herein are the average sizes (diameters) of the fully formed nanoparticle, as measured by dynamic light scattering on a Malvern Zetasizer. The nanoparticle sample is diluted in phosphate buffered saline (PBS) so that the count rate is approximately 200-400 kcts. The data is presented as a weighted average of the intensity measure.
The acronym PDI stands for polydispersity index. Unless indicated otherwise, all PDIs referred to herein are the PDI of the fully formed nanoparticle, as measured by dynamic light scattering on a Malvern Zetasizer. The nanoparticle sample is diluted in phosphate buffered saline (PBS) so that the count rate is approximately 200-400 kcts.

[3] abbreviates: dose 1 mg/kg siRNA i.v., lipid/no neutral lipid/CHOL/GM-020 NOF 60/0/36/4, N/P 3.
[4] abbreviates: lipid/no neutral lipid/CHOL/GM-020 NOF 60/0/36/4, N/P 3.
The mark [5] stands for this setting: dose 3 mg/kg siRNA i.v., lipid/DSPC/CHOL/AVANTI 880150P 50/28/18/4, N/P 3.43.
The mark [6] stands for this setting: dose 3 mg/kg siRNA i.v., lipid/no neutral lipid/CHOL/AVANTI 880150P 50/0/46/4, N/P 3.43.
Setting [7] is: lipid/DSPC/CHOL/AVANTI 880150P 50/28/18/4, N/P 3.43.
Setting [8] is: lipid/no neutral lipid/CHOL/AVANTI 880150P 50/0/46/4, N/P 3.43.
Setting [9] is: lipid/DSPC/CHOL/AVANTI 880150P 25/28/18/4, N/P 1.9.
Setting [10] is: lipid/DSPC/CHOL/AVANTI 880150P 30/30/36/4, N/P 2.3.

Where two headings read alike, the source gives them in different places.

The source of these data is patent publication US9301923B2, “Lipids, lipid compositions, and methods of using them” (NOVARTIS AG, priority 2009, dated 2016).

Usually pKa stands for the pH at which an ionisable group is half protonated.

In the case of `CCCCC/C=C\C/C=C\CCCCCCCCCCOCC(CN1CCCC1C)OCCO[C@H]1CC[C@@]2(C)C(=CC[C@H]3[C@@H]4CC[C@H]([C@H](C)CCCC(C)C)[C@@]4(C)CC[C@@H]32)C1` (stereo partly drawn) [E0070], the FVII inhib % in the series with Factor VII (setting [3]) stood at 50.3%. Further, in series [1] (pKa), the pKa worked out at 6.4. In addition, in series [2] (setting [4]), the “Final size (nm)” value worked out at 150.9 nm and the PDI came out at 0.045.
With `CCCCC/C=C\C/C=C\CCCCCCCCOCC(CN1CCC(OC)C1)OCCO[C@H]1CC[C@@]2(C)C(=CC[C@H]3[C@@H]4CC[C@H]([C@H](C)CCCC(C)C)[C@@]4(C)CC[C@@H]32)C1` (stereo partly drawn) [E0087], the FVII inhib % with Factor VII (setting [3]) is on record as 69%. In series [1] (pKa), this compound showed a pKa of 6.38. Besides, in series [2] (setting [4]), the “Final size (nm)” value is 119.2 nm and the PDI is recorded as 0.148.
Take `CCCCC/C=C\C/C=C\CCCCCCCCOCC(CN1Cc2ccccc2C1)OCCOCCO[C@H]1CC[C@@]2(C)C(=CCC3C2CC[C@@]2(C)C3CC[C@@H]2[C@H](C)CCCC(C)C)C1` (stereo partly drawn) [E0029]: the FVII inhib % in the series with Factor VII (setting [5]) is reported as 12.4%; in the series with Factor VII (setting [6]), −19.1%. Further, the pKa in series [1] (pKa) worked out at 4.95. Moreover, the “Final size (nm)” value is 137 nm in series [2] (setting [7]) and 113 nm in series [2] (setting [8]). The PDI in series [2] (setting [7]) stood at 0.04; in series [2] (setting [8]) it was 0.08.
Turning to `CCCCC/C=C\C/C=C\CCCCCCCCOCC(CN1C(C)CCC1C)OCCOCCO[C@H]1CC[C@@]2(C)C(=CCC3C2CC[C@@]2(C)C3CC[C@@H]2[C@H](C)CCCC(C)C)C1` (stereo partly drawn) [E0046], the FVII inhib % in the series on Factor VII (setting [6]) turned out to be 12.7%. This compound gave a pKa in series [1] (pKa) of 5.75. Further, in series [2] (setting [8]), the “Final size (nm)” value was determined as 194 nm and the PDI was determined as 0.116.
With `CCCCC/C=C\C/C=C\CCCCCCCCOCC(CN1CCCCC1)OCCOCCOC(=O)O[C@H]1CC[C@@]2(C)C(C=CC3C2CC[C@@]2(C)C3CC[C@@H]2[C@H](C)CCCC(C)C)C1` (stereo partly drawn) [E0056], the figures for the pKa in series [1] and in series [1] (pKa) were 5.84 and 6.33, respectively.
Consider `CCCCC/C=C\C/C=C\CCCCCCCCOCC(CN1CCC(CCOC)CC1)OCCOCCO[C@H]1CC[C@@]2(C)C(=CCC3C2CC[C@@]2(C)C3CC[C@@H]2[C@H](C)CCCC(C)C)C1` (stereo partly drawn) [E0033], for which the FVII inhib % in the series with Factor VII (dose 3 mg/kg siRNA i.v., lipid/DSPC/CHOL/AVANTI 880150P 25/28/18/4, N/P 1.9) is on record as −36.4%; with Factor VII (setting [6]) it was 15.3%. The “Final size (nm)” value in series [2] (setting [9]) worked out at 161 nm; in series [2] (setting [8]), 105 nm. Further, the results for the PDI in series [2] (setting [9]) and in series [2] (setting [8]) were 0.16 and 0.05, respectively.
The compound `CCCCC/C=C\C/C=C\CCCCCCCCOCC(CN1CCCCC1)OCCNC(=O)O[C@H]1CC[C@@]2(C)C(=CC[C@H]3[C@@H]4CC[C@H]([C@H](C)CCCC(C)C)[C@@]4(C)CC[C@@H]32)C1` (stereo partly drawn) [E0102] displayed a pKa in series [1] (pKa) of 6.31. For the same compound, the “Final size (nm)” value in series [2] (LNP formulation with PLK1 siRNA, helper, neutral and stealth lipid, molar ratio and N/P as in the table) stood at 94.69 nm.
For the compound `CCCCC/C=C\C/C=C\CCCCCCCCOC[C@@H](CN1CCCCC1)OCCOCCO[C@H]1CC[C@@]2(C)C(=CCC3C2CC[C@@]2(C)C3CC[C@@H]2[C@H](C)CCCC(C)C)C1` (stereo partly drawn) [E0034], the FVII inhib % amounted to 81.3% with Factor VII (setting [5]) and 88.1% in the series on Factor VII (setting [6]). The “Final size (nm)” value in series [2] (setting [7]) and in series [2] (setting [8]) was 99 nm in each case. Besides, the PDI in series [2] (setting [7]) and in series [2] (setting [8]) was 0.16 throughout.
For `CCCCC/C=C\C/C=C\CCCCCCCCOCC(CN1CC2CCCC2C1)OCCOCCO[C@H]1CC[C@@]2(C)C(=CC[C@H]3[C@@H]4CC[C@H]([C@H](C)CCCC(C)C)[C@@]4(C)CC[C@@H]32)C1` (stereo partly drawn) [E0022], the FVII inhib % is 49.4% in the series with Factor VII (setting [5]) and 87.8% in the series on Factor VII (setting [6]). Besides, the entries for the “Final size (nm)” value in series [2] (setting [7]) and in series [2] (setting [8]) were 93 nm and 84 nm, respectively. In addition, the PDI in series [2] (setting [7]) turned out to be 0.143; in series [2] (setting [8]) it was 0.192.
As for `CCCCC/C=C\C/C=C\CCCCCCCCOCC(CN1CCC(F)(F)CC1)OCCOCCO[C@H]1CC[C@@]2(C)C(=CCC3C2CC[C@@]2(C)C3CC[C@@H]2[C@H](C)CCCC(C)C)C1` (stereo partly drawn) [E0170], the FVII inhib % amounted to 9.3% in the series on Factor VII (setting [5]) and 14.3% with Factor VII (setting [6]). In addition, the “Final size (nm)” value was 133 nm in series [2] (setting [7]) and 170 nm in series [2] (setting [8]). The PDI in series [2] (setting [7]) is 0.095; in series [2] (setting [8]), 0.05.
Consider `CCCCC/C=C\C/C=C\CCCCCCCCOCC(CN1CCC(OC)CC1)OCCOCCO[C@H]1CC[C@@]2(C)C(=CCC3C2CC[C@@]2(C)C3CC[C@@H]2[C@H](C)CCCC(C)C)C1` (stereo partly drawn) [E0005], for which the FVII inhib % with Factor VII (setting [5]) came out at 12.2%. Moreover, in series [2] (setting [7]), the “Final size (nm)” value amounted to 168 nm and the PDI amounted to 0.069. For the same compound, in series [2] (setting [8]), the “Final size (nm)” value amounted to 146 nm and the PDI is 0.07.
Turning to `CCCCC/C=C\C/C=C\CCCCCCCCOCC(CN1CCNCC1)OCCOCCO[C@H]1CC[C@@]2(C)C(=CC[C@H]3[C@@H]4CC[C@H]([C@H](C)CCCC(C)C)[C@@]4(C)CC[C@@H]32)C1` (stereo partly drawn) [E0012], the FVII inhib % in the series with Factor VII (dose 3 mg/kg siRNA i.v., lipid/DSPC/CHOL/AVANTI 880150P 30/30/36/4, N/P 2.3) was 9.3%. Also, in series [2] (setting [10]), the “Final size (nm)” value was 220 nm and the PDI stood at 0.105.
For `CCCCC/C=C\C/C=C\CCCCCCCCOCC(CN1CCC(N2CCOCC2)C1)OCCOCCO[C@H]1CC[C@@]2(C)C(=CC[C@H]3[C@@H]4CC[C@H]([C@H](C)CCCC(C)C)[C@@]4(C)CC[C@@H]32)C1` (stereo partly drawn) [E0038], the FVII inhib % is given as −2.4% with Factor VII (setting [5]) and −6.2% in the series on Factor VII (setting [6]). Besides, the results for the “Final size (nm)” value in series [2] (setting [7]) and in series [2] (setting [8]) were 116 nm and 115 nm, respectively. For the same compound, the figures for the PDI in series [2] (setting [7]) and in series [2] (setting [8]) were 0.25 and 0.08, respectively.
With `CCCCCCCC/C=C\CCCCCCCCOCC(CN1CCOCC1)OCCOCCOC(=O)CO[C@H]1CC[C@@]2(C)C(=CC[C@H]3[C@@H]4CC[C@H]([C@H](C)CCCC(C)C)[C@@]4(C)CC[C@@H]32)C1` (stereo partly drawn) [E0125], in series [1] (pKa), the pKa was determined as 5.53. Moreover, the “Final size (nm)” value was 101.5 nm in series [2] (LNP formulation with PLK1 siRNA, helper, neutral and stealth lipid, molar ratio and N/P as in the table, stealth lipid S004, molar ratio 50/38/10/2, N/P 4); 92.84 nm in series [2] (LNP formulation with PLK1 siRNA, helper, neutral and stealth lipid, molar ratio and N/P as in the table, stealth lipid S004, molar ratio 50/43/5/2, N/P 4); 94.13 nm in series [2] (LNP formulation with PLK1 siRNA, helper, neutral and stealth lipid, molar ratio and N/P as in the table, stealth lipid S004, molar ratio 50/48/2, N/P 4).
For `CCCCC/C=C\C/C=C\CCCCCCCCOCC(CN1CCN(C(=O)OC(C)(C)C)CC1)OCCOCCO[C@H]1CC[C@@]2(C)C(=CC[C@H]3[C@@H]4CC[C@H]([C@H](C)CCCC(C)C)[C@@]4(C)CC[C@@H]32)C1` (stereo partly drawn) [E0002], the FVII inhib % in the series on Factor VII (dose 1 mg/kg siRNA i.v., lipid/DSPC/CHOL/AVANTI 880150P 50/28/18/4, N/P 3.43) is reported as −0.3%; with Factor VII (setting [5]), 10.4%. In series [2] (setting [7]), the “Final size (nm)” value is given as 109 nm. The compound also gave a PDI in series [2] (setting [7]) of 0.221.
For the compound `CCCCC/C=C\C/C=C\CCCCCCCCOCC(CN1CCC[C@@H]1COC)OCCOCCO[C@H]1CC[C@@]2(C)C(=CC[C@H]3C4CC[C@H]([C@H](C)CCCC(C)C)[C@@]4(C)CC[C@@H]32)C1` (stereo partly drawn) [E0037], the FVII inhib % in the series on Factor VII (setting [5]) was 69.3%; in the series with Factor VII (setting [6]), 66.2%. The “Final size (nm)” value stood at 96 nm in series [2] (setting [7]) and 117 nm in series [2] (setting [8]). The PDI in series [2] (setting [7]) came to 0.24; in series [2] (setting [8]), 0.1.
